Data reported in patent publication US10131653B2, “Heterocyclic compound” (TAKEDA PHARMACEUTICAL COMPANY LIMITED, priority 2015, dated 2018).

Tests used:
[1] = Measurement of solubility; assay type: physicochemical; settings: aqueous buffer, thermodynamic from solid; Britton-Robinson's Buffer pH 3, 37° C., shaking 2 hr; crystals from n-heptane suspension
Protocol: n-Heptane was added to the compounds of Examples 1, 2 and 102 at 40 mg/mL, respectively, and the mixtures were continued to be stirred at room temperature in a suspended state. After 3 to 7 days, the mixtures were filtered, and the obtained crystals as a sample were subjected to powder X-ray diffraction measurement (measurement condition: mentioned above) and solubility measurement.

Orexin-A-induced rats = experiment: Locomotor activity test using Orexin-A-induced rats; assay type: in vivo; settings: rat; for Locomotor activity increased by cerebral ventricular administration of Orexin-A: 30 mg/kg subcutaneous; for Locomotor activity (Counts/90 min): 30 mg/kg subcutaneous 30 min before Orexin-A (1 nmol) cerebral ventricular administration, mean
Protocol: The male SD rats described in Experimental Example 2 were used.
From the day before drug administration, the animals were acclimated to a locomotor activity measurement apparatus (Muromachi Kikai Co., Ltd.). Solvent (0.5% (w/v) methyl cellulose solution) and the compound (30 mg/kg) of Example 1 or the compound (30 mg/kg) of Example 2 were subcutaneously administered 30 min before administration of saline or Orexin-A (1 nmol). The locomotor activity was quantified for 30 min to 90 min after the cerebral ventricular administration of Orexin-A. A comparison with saline+solvent administration group was tested by Student's t-test (*p≤0.05). A comparison with Orexin-A+solvent administration group was tested by Dunnett's test (#p≤0.05).

human OX1 receptor = target: T1, human OX1 receptor (Homo sapiens, UniProt O43613); experiment: Measurement of orexin receptor antagonistic activity (calcium fluorescence, FLIPRtetra); assay type: cell-based; settings: 10 μM test compound, CHO cells expressing human OX1 receptor, OX-A 1 nM; for inhibition at 10 µM: CHO, read-out: Human Orexin1 receptor inhibition (at 10 μM)
T1 construct: expressed in transfected cells; host or cells: CHO cells
T1 sequence (O43613 1-425): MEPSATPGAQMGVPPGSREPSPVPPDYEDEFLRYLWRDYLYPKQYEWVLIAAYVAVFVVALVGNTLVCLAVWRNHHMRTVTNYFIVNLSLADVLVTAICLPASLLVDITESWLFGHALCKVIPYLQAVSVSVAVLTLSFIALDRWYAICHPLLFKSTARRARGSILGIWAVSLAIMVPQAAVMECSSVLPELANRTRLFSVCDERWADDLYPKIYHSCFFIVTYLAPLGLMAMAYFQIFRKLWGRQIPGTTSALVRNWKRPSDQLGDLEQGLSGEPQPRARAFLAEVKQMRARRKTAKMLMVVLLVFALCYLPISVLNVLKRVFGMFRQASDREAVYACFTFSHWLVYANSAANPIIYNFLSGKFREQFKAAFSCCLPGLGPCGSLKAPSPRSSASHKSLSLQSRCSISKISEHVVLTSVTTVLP
Outline: (§1)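 Calcium fluorescence measured by FLIPRtetra every second for 2 min after orexin-A challenge, 1 nM final for OX1 and 0.3 nM final for OX2. Receptor-expressing CHO cells received compound in HEPES-buffered HBSS with 0.1% BSA just before agonist.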

human OX2 receptor = target: T2, human OX2 receptor (Homo sapiens, UniProt O43614); experiment: as above; assay type: cell-based; settings: CHO, 10 μM test compound; CHO cells expressing human OX2 receptor; OX-A 0.3 nM; read-out: Human Orexin2 receptor inhibition (at 10 μM)
T2 construct: expressed in transfected cells; host or cells: CHO cells
T2 sequence (O43614 1-444): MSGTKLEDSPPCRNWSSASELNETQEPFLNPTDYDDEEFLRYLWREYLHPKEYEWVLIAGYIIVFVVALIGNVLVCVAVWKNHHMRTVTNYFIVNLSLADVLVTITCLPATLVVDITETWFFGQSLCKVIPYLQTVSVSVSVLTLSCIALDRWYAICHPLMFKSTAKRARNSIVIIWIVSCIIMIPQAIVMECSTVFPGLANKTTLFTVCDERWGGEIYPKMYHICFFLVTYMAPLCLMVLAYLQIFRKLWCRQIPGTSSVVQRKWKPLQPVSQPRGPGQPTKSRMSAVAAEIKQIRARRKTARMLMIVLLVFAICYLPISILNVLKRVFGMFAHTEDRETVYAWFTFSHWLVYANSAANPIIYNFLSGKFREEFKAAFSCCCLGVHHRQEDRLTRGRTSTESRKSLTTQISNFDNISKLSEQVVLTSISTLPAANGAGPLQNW
Outline: as §1

Male SD rats = experiment: Effect on sleep in rat (brain wave measurement); assay type: in vivo
Protocol: Male SD rats were purchased from Charles River Laboratories Japan, Inc. They were used for an experiment after an acclimation period of at least one week after carrying them in the animal experimental facility. They were bred in the animal experimental facility with environment in which 12-hours light-dark cycle was performed, humidity and temperature were controlled, and free water drinking and feeding were allowed.
Electrodes for brain wave measurement were implanted in rat cortex, muscle electrodes were implanted in rat cervical muscle, and a transmitter was implanted under rat back skin. Rats in which chronic electrodes were implanted were fully acclimated to a box for brain wave measurement, and then the brain wave measurement was performed. The brain wave data was obtained using Dataquest ART manufactured by Data Sciences International. For analysis, wakefulness, non-REM sleep and REM sleep were automatically determined using Sleep Sign which is a program for sleep analysis study by KISSEI COMTEC Co., Ltd. The compound of Example 102 was subcutaneously administered at a dose of 3 mg/kg immediately before beginning of dark period. The sum of non-REM sleep and REM sleep 1 hr after the administration was regarded as total sleep. All data were shown as the mean+standard error. For statistical analysis, variance analysis to crossover was performed (*p ?0.05).

Structure (SMILES)	solubility at 2 h [1] [µg/mL]	Locomotor activity increased by cerebral ventricular administration of Orexin-A (Orexin-A-induced rats)	Locomotor activity (Counts/90 min) (Orexin-A-induced rats)	inhibition at 10 µM (human OX1 receptor) [%]	inhibition at 10 µM (human OX2 receptor) [%]	Total sleep compared with solvent control group (Male SD rats; 3 mg/kg subcutaneous)	Total sleep (Male SD rats; 3 mg/kg subcutaneous immediately before dark period, sum of non-REM and REM sleep 1 hr after administration, mean) [min]	Human Orexin1 receptor inhibition (at 10 μM) (human OX1 receptor) [%]
Cc1cc(N2CCN(C(=O)c3cc(F)ccc3-n3nccn3)C[C@H](C)O2)nc(C)n1 [Example 1, ((7S)-2-(2,6-dimethylpyrimidin-4-yl)-7-methyl-1,2,5-oxadiazepan-5-yl)(5-fluoro-2-(2H-1,2,3-triazol-2-yl)phenyl)methanone]	≥ 5000	significantly decreased	3528	47	98	–	–	–
Cc1cc(N2CCN(C(=O)c3ccccc3-n3nccn3)C[C@H](C)O2)nc(C)n1 [Example 2, ((7S)-2-(2,6-dimethylpyrimidin-4-yl)-7-methyl-1,2,5-oxadiazepan-5-yl)(2-(2H-1,2,3-triazol-2-yl)phenyl)methanone]	≥ 5000	significantly decreased	2638	68	101	–	–	–
Cc1cc(N2CCN(C(=O)c3cc(Cl)ccc3-n3nccn3)C[C@H](C)O2)nc(C)n1 [Example 102, (5-chloro-2-(2H-1,2,3-triazol-2-yl)phenyl)((7S)-2-(2,6-dimethylpyrimidin-4-yl)-7-methyl-1,2,5-oxadiazepan-5-yl)methanone]	≥ 5000	–	–	–	101	significantly increased	33.51	94
